Data taken from PubChem BioAssay (NCI).
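The compound was tested at five concentrations on cells cultured in 96-well plates, with a 48-hour exposure period. The concentration for full growth arrest is given as TGI.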

Assays:
Experiment in all cases: NCI anticancer screen, dose series, 48 h
[1] = system: SK-MEL-28 melanoma
[2] = system: U251 CNS
[3] = system: SW-620 colon
[4] = system: OVCAR-3 ovarian
[5] = system: COLO 205 colon
[6] = system: HCT-15 colon
[7] = system: CCRF-CEM leukemia
[8] = system: SF-539 CNS
[9] = system: HL-60(TB) leukemia
[10] = system: MALME-3M melanoma
[11] = system: LOX IMVI melanoma
[12] = system: NCI-H522 lung
[13] = system: EKVX NSCLC
[14] = system: SN12C renal
[15] = system: MOLT-4 leukemia
[16] = system: SK-MEL-5 melanoma
[17] = system: M19-MEL melanoma
[18] = system: DMS 273 small cell lung
[19] = system: XF 498 CNS
[20] = system: RPMI-8226 leukemia
[21] = system: SR leukemia
[22] = system: NCI-H226 lung
[23] = system: SNB-19 CNS
[24] = system: KM20L2 colon
[25] = system: KM12 colon
[26] = system: UACC-257 melanoma
[27] = system: LXFL 529 NSCLC
[28] = system: CAKI-1 renal
[29] = system: HCC-2998 colon
[30] = system: A549 NSCLC
[31] = system: OVCAR-8 ovarian
[32] = system: M14 melanoma
[33] = system: UO-31 renal
[34] = system: TK-10 renal
[35] = system: SF-295 CNS
[36] = system: SK-MEL-2 melanoma
[37] = system: 786-0 renal
[38] = system: ACHN renal
[39] = system: DLD-1 colon
[40] = system: OVCAR-4 ovarian
[41] = system: IGROV1 ovarian
[42] = system: K-562 leukemia
[43] = system: SK-OV-3 ovarian
[44] = system: NCI-H23 lung
[45] = system: HOP-92 NSCLC
[46] = system: UACC-62 melanoma
[47] = system: A498 renal
[48] = system: OVCAR-5 ovarian
[49] = system: HT29 colon
[50] = system: HOP-62 NSCLC
[51] = system: DMS 114 small cell lung
[52] = system: NCI-H460 lung
[53] = system: SF-268 CNS
[54] = system: HOP-18 NSCLC
[55] = system: SNB-75 CNS

## CCN(CC)CCN(C)CC(C)(C)C(=O)/C=C/c1ccccc1
[1]
  TGI: 30.3 µM
[2]
  TGI: 22.1 µM
[3]
  TGI: 24.2 µM
[4]
  TGI: 26.2 µM
[5]
  TGI: 26.6 µM
[6]
  TGI: 28.4 µM
[7]
  TGI: 38.4 µM
[8]
  TGI: 19 µM
[9]
  TGI: 28.9 µM
[10]
  TGI: 28.5 µM
[11]
  TGI: 24 µM
[12]
  TGI: 21.4 µM
[13]
  TGI: 26.1 µM
[14]
  TGI: 22.7 µM
[15]
  TGI: 30.5 µM
[16]
  TGI: 27.3 µM
[17]
  TGI: 24.3 µM
[18]
  TGI: 26.1 µM
[19]
  TGI: 24.8 µM
[20]
  TGI: 36 µM
[21]
  TGI: 45.5 µM
[22]
  TGI: 32.4 µM
[23]
  TGI: 28.4 µM
[24]
  TGI: 23.1 µM
[25]
  TGI: 25.4 µM
[26]
  TGI: 24.4 µM
[27]
  TGI: 24.7 µM
[28]
  TGI: 28.7 µM
[29]
  TGI: 27.7 µM
[30]
  TGI: 47.2 µM
[31]
  TGI: 43.2 µM
[32]
  TGI: 25.7 µM
[33]
  TGI: 26.2 µM
[34]
  TGI: 36.8 µM
[35]
  TGI: 29.4 µM
[36]
  TGI: 24.2 µM
[37]
  TGI: 29.4 µM
[38]
  TGI: 26.5 µM
[39]
  TGI: 22.2 µM
[40]
  TGI: 24.3 µM
[41]
  TGI: 36.5 µM
[42]
  TGI: > 100 µM
[43]
  TGI: 26.6 µM
[44]
  TGI: 25.7 µM
[45]
  TGI: 18.1 µM
[46]
  TGI: 26.9 µM
[47]
  TGI: 17.3 µM
[48]
  TGI: 26.9 µM
[49]
  TGI: 24.9 µM
[50]
  TGI: 37 µM
[51]
  TGI: 21.4 µM
[52]
  TGI: 20.3 µM
[53]
  TGI: 27.2 µM
[54]
  TGI: 30.6 µM
[55]
  TGI: 18.3 µM
